Results on 21 molecules are retold here after patent US20260200897A1, “4-((5-(3-(4-(PYRIDIN-2-YL)CYCLOPENTYL)-1H-PYRAZOL-3-YL)AMINO)-BENZENESULFONAMIDE DERIVATIVES AND SIMILAR COMPOUNDS AS CDK INHIBITORS FOR THE TREATMENT OF CANCER” (BeOne Medicines I GmbH, priority 2023, published 2026).

Bounds are passed on as bounds.

The target of one test is CDK2/Cyclin E1 (Homo sapiens, UniProt P24941). As to the kind of experiment: CDK2/Cyclin E1 TR-FRET biochemical assay, 1 mM ATP. The settings on record: 0.15 μM Rb (Ser780)-biotin substrate, 90 min reaction, Table 2. Here is the method:
(§1) Compounds disclosed herein were tested for inhibition of CDK2/Cyclin E1 or CDK1/Cyclin B kinase in an assay based on the time-resolved fluorescence-resonance energy transfer (TR-FRET) methodology. The assay was carried out in 384-well low volume black plates in a reaction mixture containing CDK2/Cyclin E1 or CDK1/Cyclin B1, 1 mM ATP for CDK2/Cyclin E1 and CDK1/Cyclin B1, 0.15 μM Rb (Ser780)-biotin substrate and 0-10 μM compound in buffer containing 50 mM HEPES pH7.0, 0.02% NaN3, 0.01% BSA, 0.1 mM Orthovanadate, 50 mM MgCl2, 1 mM DTT and 0.005% Tween-20. The kinase was incubated with compound for 60 minutes at room temperature and the reaction was initiated by the addition of ATP and Rb (Ser780)-biotin substrate. After reaction at room temperature for 90 minutes, an equal volume of stop/detection solution was added according to the manufacture's instruction (Cisbio Bioassays). The stop/detection solution contained Streptavidin-XL665 and Anti-pRb (Ser780) mAb-Eu Cryptate in Detection buffer (Cisbio Bioassays). Plates were incubated at room temperature for 60 minutes, and the TR-FRET signals (ex337 nm, em665 nm/620 nm) were recorded on a PHERAstar FSX plate reader (BMG Labtech). The inhibition percentage of CDK2/Cyclin E1 or CDK1/Cyclin B1 kinase activity in presence of increasing concentrations of compounds was calculated based on the ratio of fluorescence at 665 nm to that at 620 nm. The IC50 for each compound was derived from fitting the data to the four-parameter logistic equation by Dotmatics.
(TR-FRET usually uses a lanthanide donor and a delayed reading to cut background.)

Another test concerns the target CDK1/Cyclin B1 (Homo sapiens, UniProt P06493). In words: CDK1/Cyclin B1 TR-FRET biochemical assay, 1 mM ATP. As to conditions: 0.15 μM Rb (Ser780)-biotin substrate, 90 min reaction, Table 2. Here is the method:
as §1

Chain of CDK1/Cyclin B1 (P06493 whole entry): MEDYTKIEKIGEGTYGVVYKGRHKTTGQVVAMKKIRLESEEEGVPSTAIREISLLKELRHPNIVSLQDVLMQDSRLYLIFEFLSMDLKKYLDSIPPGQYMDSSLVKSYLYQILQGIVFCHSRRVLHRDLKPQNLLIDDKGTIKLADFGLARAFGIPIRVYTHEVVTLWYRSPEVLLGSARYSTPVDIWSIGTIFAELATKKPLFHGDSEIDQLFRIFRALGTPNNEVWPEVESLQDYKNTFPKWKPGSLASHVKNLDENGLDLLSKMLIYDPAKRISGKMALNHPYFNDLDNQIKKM
Chain of CDK1/Cyclin B1 (P14635 whole entry partner): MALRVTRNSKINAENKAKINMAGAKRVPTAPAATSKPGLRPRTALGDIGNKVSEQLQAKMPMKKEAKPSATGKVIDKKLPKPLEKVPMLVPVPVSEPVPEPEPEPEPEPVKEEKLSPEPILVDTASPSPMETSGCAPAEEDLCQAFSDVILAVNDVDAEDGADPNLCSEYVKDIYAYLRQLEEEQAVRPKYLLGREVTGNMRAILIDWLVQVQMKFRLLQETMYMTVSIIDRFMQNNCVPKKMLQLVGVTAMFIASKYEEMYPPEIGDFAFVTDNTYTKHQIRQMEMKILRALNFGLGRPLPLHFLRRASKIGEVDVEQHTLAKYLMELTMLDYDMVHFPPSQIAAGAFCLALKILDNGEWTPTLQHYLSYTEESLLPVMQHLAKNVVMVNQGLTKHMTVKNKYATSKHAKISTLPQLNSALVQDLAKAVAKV

What is called IC50 is the concentration that gives 50% inhibition. A lower IC50 goes with greater potency in that assay. As to `CC(C)(C)c1ccnnc1O[C@H]1CC[C@H](c2cc(Nc3ccc4c(c3F)CNS4(=O)=O)n[nH]2)C1` (relative stereo) [Example 36, trans-5-((5-(3-((4-(tert-butyl)pyridazin-3-yl)oxy)cyclopentyl)-1H-pyrazol-3-yl)amino)-4-fluoro-2,3-dihydrobenzo[d]isothiazole 1,1-dioxide], the IC50 at CDK2/Cyclin E1 and at CDK1/Cyclin B1 was more than 10000 nM throughout.
As for `CC(C)(C)c1ccnnc1O[C@@H]1CC[C@H](c2cc(Nc3ccc4c(c3F)CNS4(=O)=O)n[nH]2)C1` (relative stereo) [Example 37, cis-5-((5-(3-((4-(tert-butyl)pyridazin-3-yl)oxy)cyclopentyl)-1H-pyrazol-3-yl)amino)-4-fluoro-2,3-dihydrobenzo[d]isothiazole 1,1-dioxide], the IC50 against CDK2/Cyclin E1 came out at 0.5 nM; at CDK1/Cyclin B1, 11 nM.
With `CC(C)(C)c1cc(O[C@@H]2CC[C@H](c3cc(Nc4ccc5c(c4F)CNS5(=O)=O)n[nH]3)C2)ncn1` (relative stereo) [Example 38, cis-5-((5-(3-((6-(tert-butyl)pyrimidin-4-yl)oxy)cyclopentyl)-1H-pyrazol-3-yl)amino)-4-fluoro-2,3-dihydrobenzo[d]isothiazole 1,1-dioxide], the IC50 against CDK2/Cyclin E1 was 2370 nM; at CDK1/Cyclin B1, more than 10000 nM.
With `CC(C)(C)c1csnc1O[C@@H]1CC[C@H](c2cc(Nc3ccc4c(c3F)CNS4(=O)=O)n[nH]2)C1` (relative stereo) [Example 56, cis-5-((5-(3-((4-(tert-butyl)isothiazol-3-yl)oxy)cyclopentyl)-1H-pyrazol-3-yl)amino)-4-fluoro-2,3-dihydrobenzo[d]isothiazole 1,1-dioxide], the IC50 against CDK2/Cyclin E1 was determined as 4.3 nM; against CDK1/Cyclin B1 it was 3500 nM.
For `Cn1ncc(C(C)(C)C)c1O[C@@H]1CC[C@H](c2cc(Nc3ccc4c(c3F)CNS4(=O)=O)n[nH]2)C1` (relative stereo) [Example 72, cis-5-((5-(3-((4-(tert-butyl)-1-methyl-1H-pyrazol-5-yl)oxy)cyclopentyl)-1H-pyrazol-3-yl)amino)-4-fluoro-2,3-dihydrobenzo[d]isothiazole 1,1-dioxide], the IC50 against CDK2/Cyclin E1 is 5910 nM; on CDK1/Cyclin B1, more than 10000 nM.
As to `Cc1[nH]nc(C(C)(C)C)c1O[C@@H]1CC[C@H](c2cc(Nc3ccc4c(c3F)CNS4(=O)=O)n[nH]2)C1` (relative stereo) [Example 80, cis-5-((5-(3-((3-(tert-butyl)-5-methyl-1H-pyrazol-4-yl)oxy)cyclopentyl)-1H-pyrazol-3-yl)amino)-4-fluoro-2,3-dihydrobenzo[d]isothiazole 1,1-dioxide], the figures for the IC50 on CDK2/Cyclin E1 and against CDK1/Cyclin B1 were 1120 nM and more than 10000 nM, respectively.
As for `CC(C)(C)c1cn([C@@H]2CC[C@H](c3cc(Nc4ccc5c(c4F)CNS5(=O)=O)n[nH]3)C2)cn1` (relative stereo) [Example 88, cis-5-((5-(3-(4-(tert-butyl)-1H-imidazol-1-yl)cyclopentyl)-1H-pyrazol-3-yl)amino)-4-fluoro-2,3-dihydrobenzo[d]isothiazole 1,1-dioxide], the IC50 against CDK2/Cyclin E1 and at CDK1/Cyclin B1 was more than 10000 nM each time.
Regarding `CC(C)(C)c1cnn([C@@H]2CC[C@H](c3cc(Nc4ccc5c(c4F)CNS5(=O)=O)n[nH]3)C2)c1` (relative stereo) [Example 89, cis-5-((5-(3-(4-(tert-butyl)-1H-pyrazol-1-yl)cyclopentyl)-1H-pyrazol-3-yl)amino)-4-fluoro-2,3-dihydrobenzo[d]isothiazole 1,1-dioxide], the IC50 on CDK2/Cyclin E1 is 351 nM; at CDK1/Cyclin B1, more than 10000 nM.
For the molecule `CC(C)(C)c1cn([C@@H]2CC[C@H](c3cc(Nc4ccc5c(c4F)CNS5(=O)=O)n[nH]3)C2)nn1` (relative stereo) [Example 90, cis-5-((5-(3-(4-(tert-butyl)-1H-1,2,3-triazol-1-yl)cyclopentyl)-1H-pyrazol-3-yl)amino)-4-fluoro-2,3-dihydrobenzo[d]isothiazole 1,1-dioxide], the IC50 against CDK2/Cyclin E1 was 3310 nM; against CDK1/Cyclin B1, more than 10000 nM.
As for `CC(C)(C)c1nnc([C@@H]2CC[C@H](c3cc(Nc4ccc5c(c4F)CNS5(=O)=O)n[nH]3)C2)o1` (relative stereo) [Example 96, cis-5-((5-(3-(5-(tert-butyl)-1,3,4-oxadiazol-2-yl)cyclopentyl)-1H-pyrazol-3-yl)amino)-4-fluoro-2,3-dihydrobenzo[d]isothiazole 1,1-dioxide], the IC50 against CDK2/Cyclin E1 is 314 nM; at CDK1/Cyclin B1 it was more than 10000 nM.
For `CC(C)(C)c1nnc([C@H]2CC[C@H](c3cc(Nc4ccc5c(c4F)CNS5(=O)=O)n[nH]3)C2)o1` (relative stereo) [Example 97, trans-5-((5-(3-(5-(tert-butyl)-1,3,4-oxadiazol-2-yl)cyclopentyl)-1H-pyrazol-3-yl)amino)-4-fluoro-2,3-dihydrobenzo[d]isothiazole 1,1-dioxide], the IC50 at CDK2/Cyclin E1 is 3180 nM; against CDK1/Cyclin B1, more than 10000 nM.
On the same counts, the results for `CC(C)(C)c1ccc([C@@H]2CC[C@H](c3cc(Nc4ccc5c(c4F)CNS5(=O)=O)n[nH]3)C2)o1` (relative stereo) [Example 107, cis-5-((5-(3-(5-(tert-butyl)furan-2-yl)cyclopentyl)-1H-pyrazol-3-yl)amino)-4-fluoro-2,3-dihydrobenzo[d]isothiazole 1,1-dioxide] are 2440 nM and more than 10000 nM.
Consider `CC(C)(C)c1ccc([C@H]2CC[C@H](c3cc(Nc4ccc5c(c4F)CNS5(=O)=O)n[nH]3)C2)o1` (relative stereo) [Example 108, trans-5-((5-(3-(5-(tert-butyl)furan-2-yl)cyclopentyl)-1H-pyrazol-3-yl)amino)-4-fluoro-2,3-dihydrobenzo[d]isothiazole 1,1-dioxide], for which the IC50 is 8510 nM on CDK2/Cyclin E1 and more than 10000 nM against CDK1/Cyclin B1.
The corresponding values for `CC(C)(C)c1ccnc([C@@H]2CC[C@H](c3cc(Nc4ccc5c(c4F)CNS5(=O)=O)n[nH]3)C2)n1` (relative stereo) [Example 127, cis-5-((5-(3-(4-(tert-butyl)pyrimidin-2-yl)cyclopentyl)-1H-pyrazol-3-yl)amino)-4-fluoro-2,3-dihydrobenzo[d]isothiazole 1,1-dioxide] are 1.5 nM and 142 nM.
In the case of `CC(C)(C)c1ncccc1O[C@@H]1CC[C@H](c2cc(Nc3ccc4c(c3)CS(=O)(=O)N4)n[nH]2)C1` (relative stereo) [Example 139, cis-5-((5-(3-((2-(tert-butyl)pyridin-3-yl)oxy)cyclopentyl)-1H-pyrazol-3-yl)amino)-1,3-dihydrobenzo[c]isothiazole 2,2-dioxide], the figures for the half-maximal inhibitory concentration (IC50) against CDK2/Cyclin E1 and against CDK1/Cyclin B1 were 54 nM and 5710 nM, respectively.
For `CC(C)(C)c1nnc([C@@H]2CC[C@H](c3cc(Nc4ccc5c(c4F)CS(=O)(=O)N5)n[nH]3)C2)o1` (relative stereo) [Example 146, cis-5-((5-(3-(5-(tert-butyl)-1,3,4-oxadiazol-2-yl)cyclopentyl)-1H-pyrazol-3-yl)amino)-4-fluoro-1,3-dihydrobenzo[c]isothiazole 2,2-dioxide], the IC50 at CDK2/Cyclin E1 was 74 nM; on CDK1/Cyclin B1 it was more than 10000 nM.
In the case of `CC(C)(C)c1nnc([C@H]2CC[C@H](c3cc(Nc4ccc5c(c4F)CS(=O)(=O)N5)n[nH]3)C2)o1` (relative stereo) [Example 147, trans-5-((5-(3-(5-(tert-butyl)-1,3,4-oxadiazol-2-yl)cyclopentyl)-1H-pyrazol-3-yl)amino)-4-fluoro-1,3-dihydrobenzo[c]isothiazole 2,2-dioxide], the IC50 on CDK2/Cyclin E1 is 851 nM; on CDK1/Cyclin B1, more than 10000 nM.
Regarding `CC(C)(C)c1cnc([C@@H]2CC[C@H](c3cc(Nc4ccc5c(c4F)CS(=O)(=O)N5)n[nH]3)C2)s1` (relative stereo) [Example 149, cis-5-((5-(3-(5-(tert-butyl)thiazol-2-yl)cyclopentyl)-1H-pyrazol-3-yl)amino)-4-fluoro-1,3-dihydrobenzo[c]isothiazole 2,2-dioxide], the values for the IC50 against CDK2/Cyclin E1 and on CDK1/Cyclin B1 were 6120 nM and more than 10000 nM, respectively.
For the molecule `CC(C)(C)c1cnc(C2CCC(c3cc(Nc4ccc(S(N)(=O)=O)cc4F)n[nH]3)C2)o1` (single isomer, unassigned) [Example 6a, 4-((5-(3-(5-(tert-butyl)oxazol-2-yl)cyclopentyl)-1H-pyrazol-3-yl)amino)-3-fluorobenzenesulfonamide], the IC50 came out at 3 nM against CDK2/Cyclin E1 and 2000 nM on CDK1/Cyclin B1.
With `CC(C)(C)c1cnc(C2CCC(c3cc(Nc4ccc(S(N)(=O)=O)cc4F)n[nH]3)C2)o1` (single isomer, unassigned) [Example 6b, 4-((5-(3-(5-(tert-butyl)oxazol-2-yl)cyclopentyl)-1H-pyrazol-3-yl)amino)-3-fluorobenzenesulfonamide], the IC50 is 88 nM on CDK2/Cyclin E1 and more than 10000 nM against CDK1/Cyclin B1.
On the same counts, the results for `CC(C)(C)c1cnc(C2CCC(c3cc(Nc4ccc(S(N)(=O)=O)cc4F)n[nH]3)C2)o1` (single isomer, unassigned) [Example 6c, 4-((5-(3-(5-(tert-butyl)oxazol-2-yl)cyclopentyl)-1H-pyrazol-3-yl)amino)-3-fluorobenzenesulfonamide] are 1910 nM and more than 10000 nM.
